From article PMC12169475 (ACS Medicinal Chemistry Letters, 2025)
Where two headings read alike, the source gives them in different places. Ends that are not written are not given here.

Experiments:
[1] = system: A. baumannii NICD 15283 (C); design: key: S - Susceptible; R - Resistant; I – Intermediate; conditions: A. baumannii NICD 15283 clinical isolate; ref NICD; cited from earlier work
[2] = system: A. baumannii NICD 15283 (C); conditions: for Modal MIC: A. baumannii NICD 15283 clinical isolate, cation-adjusted MHB, ~5 x 10^5 CFU/mL, 37°C 20 h, OD600, n = 6; for Selectivity index (HaCat LC50 / MIC): A. baumannii NICD 15283 clinical isolate over HaCat cells
Protocol: (§1) Antibacterial activity against a panel of standard laboratory strains and clinical isolates.
(§2) Antimicrobial activity was evaluated against a panel of Gram-negative bacteria maintained by H3D, University of Cape Town, consisting of six laboratory reference strains and two clinical isolates. Briefly, bacterial colonies from an LB agar plate were picked and cultured in cation-adjusted Mueller Hinton broth (MHB) at 37°C with 180 rpm shaking, overnight. Cultures were […]
(§3) back diluted to reach a starting optical density at 600 nm (OD600) of 0.1 and then diluted 100- […]
(§4) media down polypropylene 96-well plates. Inoculum was added at a 1:1 ratio resulting in a […]
(§5) (Suppl. Table S2). Plates were incubated at 37°C for 20 h and the OD600 determined. Minimum inhibition concentrations (MICs) were determined from a minimum of three biological repeats. […]
(§6) the background absorbance.
(§7) Caution! All bacterial work was conducted using appropriate biosafety level 2 (BSL-2) practices.
(§8) Clinical isolates and reference strains were handled in a biosafety cabinet with proper PPE to prevent exposure and contamination.

[3] = system: E. cloacae NICD 16103 (C); conditions: for Modal MIC: E. cloacae NICD 16103 clinical isolate, cation-adjusted MHB, ~5 x 10^5 CFU/mL, 37°C 20 h, OD600, n = 6; for Selectivity index (HaCat LC50 / MIC): E. cloacae NICD 16103 clinical isolate over HaCat cells
Protocol: as §1, §2, §3, §4, §5, §6, §7, §8

[4] = system: E. cloacae NICD 16103 (C); design: key: S - Susceptible; R - Resistant; I – Intermediate; conditions: E. cloacae NICD 16103 clinical isolate; ref NICD; cited from earlier work
[5] = system: E. coli ATCC 700928; conditions: for Modal MIC: E. coli ATCC 700928, cation-adjusted MHB, ~5 x 10^5 CFU/mL, 37°C 20 h, OD600, n = 6; for Selectivity index (HaCat LC50 / MIC): E. coli ATCC 700928 over HaCat cells
Protocol: as §1, §2, §3, §4, §5, §6, §7, §8

[6] = system: E. cloacae ATCC 700323; conditions: for Modal MIC: E. cloacae ATCC 700323, cation-adjusted MHB, ~5 x 10^5 CFU/mL, 37°C 20 h, OD600, n = 6; for Selectivity index (HaCat LC50 / MIC): E. cloacae ATCC 700323 over HaCat cells
Protocol: as §1, §2, §3, §4, §5, §6, §7, §8

[7] = system: A. baumannii ATCC 19606; conditions: for Modal MIC: A. baumannii ATCC 19606, cation-adjusted MHB, ~5 x 10^5 CFU/mL, 37°C 20 h, OD600, n = 6; for Selectivity index (HaCat LC50 / MIC): A. baumannii ATCC 19606 over HaCat cells
Protocol: as §1, §2, §3, §4, §5, §6, §7, §8

[8] = system: K. pneumoniae ATCC BAA-1705; conditions: for Modal MIC: K. pneumoniae ATCC BAA-1705, cation-adjusted MHB, ~5 x 10^5 CFU/mL, 37°C 20 h, OD600, n = 6; for Selectivity index (HaCat LC50 / MIC): K. pneumoniae ATCC BAA-1705 over HaCat cells
Protocol: as §1, §2, §3, §4, §5, §6, §7, §8

[9] = system: P. aeruginosa PAO1; conditions: for Modal MIC: P. aeruginosa PAO1, cation-adjusted MHB, ~5 x 10^5 CFU/mL, 37°C 20 h, OD600, n = 6; for Selectivity index (HaCat LC50 / MIC): P. aeruginosa PAO1 over HaCat cells
Protocol: as §1, §2, §3, §4, §5, §6, §7, §8

[10] = system: E. coli ATCC 25922; conditions: for Modal MIC: E. coli ATCC 25922, cation-adjusted MHB, ~5 x 10^5 CFU/mL, 37°C 20 h, OD600, triplicate experiments in duplicate (n = 6); for Selectivity index (HaCat LC50 / MIC): E. coli ATCC 25922 over HaCat cells
Protocol: as §1, §2, §3, §4, §5, §6, §7

[11] = system: E. cloacae NICD 16103; assay type: cell-based, Enterobacter cloacae; conditions: then MIC 20 h 37°C; for MIC after trypsin treatment: trypsin 0.15 U/mL pH 7.4 (picture: 1 mM), 1 h 37°C, inactivated 60°C 20 min
[12] = system: HaCat cells; experiment: In vitro cytotoxicity screening against epidermal HaCat cells (MTT); conditions: 24 h exposure in total (21 h + 3 h MTT), OD570, three independent experiments in duplicate (n = 6)
[13] = system: HepG2 cells; conditions: previously reported, ref Van der Walt et al.; cited from earlier work
[14] = system: mammalian erythrocytes; conditions: previously reported, ref Van der Walt et al.; cited from earlier work
[15] = system: HaCat cells; conditions: previously reported, ref Van der Walt et al.; cited from earlier work
Protocol: The toxicity of the analogues was assessed against HaCat cells, which serve as a relevant model for the intended topical application of these peptides in burn wound care.

Compound	Antimicrobial susceptibility profile [1]	Modal MIC [2]	Modal MIC [3]	Antimicrobial susceptibility profile [4]	Modal MIC [5] [µg/mL]	Modal MIC [6]	Modal MIC [7] [µg/mL]	Modal MIC [8]	Modal MIC [9] [µg/mL]	Modal MIC [10]	HaCat toxicity LC50 + SD [12] [µg/mL]	Selectivity index (HaCat LC50 / MIC) [5]	Selectivity index (HaCat LC50 / MIC) [2]	Selectivity index (HaCat LC50 / MIC) [3]	Selectivity index (HaCat LC50 / MIC) [7]	Selectivity index (HaCat LC50 / MIC) [8]	Selectivity index (HaCat LC50 / MIC) [9]	Selectivity index (HaCat LC50 / MIC) [10]	further results
C[C@@H](O)[C@H]1C(=O)N2C(C(=O)O)=C(S[C@@H]3CN[C@H](C(=O)N(C)C)C3)[C@H](C)[C@H]12 [Meropenem, reference compound]	R	32 µg/mL	16 µg/mL	R	–	–	–	–	–	–	–	–	–	–	–	–	–	–	–
CNC(C)C1CCC(N)C(OC2C(N)CC(N)C(OC3OCC(C)(O)C(NC)C3O)C2O)O1 (centres unmarked) [Gentamicin, reference compound]	R	16/32	> 32 µg/mL	R	0.5	2 µg/mL	32	1/2	4	0.5 µg/mL	–	–	–	–	–	–	–	–	–
GKVWKWIKSTARRLWN-NH2 [Opis16aCterKR]	–	8 µg/mL	4 (4×) μg/mL	–	4	8 (8×) μg/mL	4	8 µg/mL	4	8 (8×) μg/mL	181 ± 8	45.2	22.6	45.2	45.2	22.6	45.2	22.6	MIC after trypsin treatment [11]: > 32 µg/mL; Selectivity index (HaCat LC50 / MIC) [6]: 22.6
C[C@@H](O)[C@H]1C(=O)N2C(C(=O)O)=C(SCCN=CN)C[C@H]12 [Imipenem]	R	–	–	R	–	–	–	–	–	–	–	–	–	–	–	–	–	–	–
CN(C)[C@@H]1C(O)=C(C(N)=O)C(=O)[C@@]2(O)C(O)=C3C(=O)c4c(O)cccc4[C@@](C)(O)[C@H]3C[C@@H]12 [Tetracycline]	R	–	–	R	–	–	–	–	–	–	–	–	–	–	–	–	–	–	–
GKVWDWIKSTAKKLWN-NH2 [Opis16a]	–	–	–	–	–	–	–	–	–	–	–	–	–	–	–	–	–	–	LC50 [13]: 118 ± 8 µg/mL; MIC in FCS (20%) ([11]; peptide preincubated in 20% FCS 1 h at 37°C): 64 µg/mL; MIC after trypsin treatment [11]: > 32 µg/mL; HC50 [14]: > 256 µg/mL; HaCat toxicity LC50 + SD [15]: 311 ± 12 µg/mL
GRVWRWIRSTARRLWN-NH2 [Opis16aKR]	–	8 µg/mL	4 (4×) μg/mL	–	4	8 (8×) μg/mL	4	16 µg/mL	4	8 (8×) μg/mL	131 ± 5	32.9	16.4	32.9	32.9	8.21	32.9	16.4	–
GRVWRWIKSTAKKLWN-NH2 [Opis16aNterKR]	–	8 µg/mL	8 µg/mL	–	4	16 µg/mL	4	16 µg/mL	4	8 (8×) μg/mL	138 ± 14	34.6	17.3	17.3	34.6	8.64	34.6	17.3	Selectivity index (HaCat LC50 / MIC) [6]: 8.64
